What was measured:
Normal rats = assay: Blood sugar lowering in normal rats after oral administration; format: in vivo, rat; conditions: 0.5 mg/kg oral; for % decrease in plasma glucose: Table 14; for Pre-treatment Plasma glucose: pre-treatment (baseline)
Procedure: (a) Male Wistar rats are provided from the National Laboratory Animal Breeding and Research Center (Taipei, Taiwan), each of whose weight is about 200-250 grams, and the average age thereof is above 8 weeks. They were housed under conditions of constant temperature (25±1[…]) and controlled illumination (light time and dark time are respectively 12 hours). Food and water were available.
(§1) (d) The administration: Dissolve the medicine equivalently in deionized water, and then administrate the mentioned solution into the normal and diabetic rats by an orally perfusion. Keep with the desired concentration of the perfusion amount by taking suitable amount of the medicine solution according to the weight of the different animal.
(§2) The rats to be experimented should undergo a starvation for 8-12 hours overnight. Next day, the rats are anesthetized with 30 mg/kg pentobarbital by injecting into the abdominal cavity. After the rats fall asleep, fix the rats on the board with the rubber band. Open the groin, find the veins, bleed 0.1 ml blood from an empty stomach, and then feed the medicine into the body of the rats by taking orally. After 90 minutes, bleed and perform a centrifugation (13,000 rpm, 5 minutes) to separate the serum and the plasma. Take the 10 μl supernatant of the serum and add 1 ml reagent of the glucose kit thereinto by gently mixing. React for 5 minutes at 37 °C, followed by detecting the value of the blood sugar by means of BST330 based on the different absorption level. […] The value of the blood sugar (mg/dL) is calculated by comparing the level of redness with contrasting the standard curve.
(§3) (The value of blood sugar at postadministration)−(The value of blood sugar at preadministration)/(The value of blood sugar at preadministration)×100%
The results of the experiments are presented in the average value±the standard error (mean±SE), and the variations therebetween are evaluated according to the Student's t-test, while the variations thereamong are evaluated according to one-way ANOVA and Bonferroni's t-test, wherein P<0.05 is deemed to have apparent differences.

coronary artery = assay: Flow rate of the coronary artery in the isolated perfused rat heart (Langendorff); conditions: for effect on coronary flow rate (in words): Wistar rats, Tables 15 and 16; for coronary flow: isolated Wistar rat heart
Procedure: Each of the male Wistar rats weighs about 200-250 grams, and is anesthetized with 25 mg/kg pentobarbital and 16 mg/kg heparin by injecting into the abdominal cavity. After falling asleep, separate the cervical vertebra and immediately take the heart out hanging on the constant pouring pressure circulation instrument (Langendorff, AD Instruments Pty Ltd, ML870B2) and fill a 37[…] pouring solution of 95% of oxygen and 5% of carbon dioxide with the artery (119.7 mM NaCl, 23.8 mM NaHCO3, 5.6 mM glucose, 1.2 mM CaCl2, 1.1 mM MgCl2, 0.3 mM NaH2PO4, and 5.0 mM KCl), which washes the heart and clean out the blood water by pouring in a reverse direction. The rate of the reverse pouring is 10 ml/min, followed by maintaining the pouring pressure of the coronary artery at 80 mmHg. After balancing for thirty minutes, measure the rate of the pouring solution flowing in the heart, and observe the change of the rate the pouring solution flowing in the heart while the testing drug is added.

Type 2 diabetic rats = assay: Blood sugar lowering in insulin-induced type 2 diabetic rats after oral administration; format: in vivo, rat; conditions: type II diabetic rats, 1 mg/kg, p.o., 90 minutes
Procedure: (c) Insulin-induced type 2 diabetic rats: the abdominal cavity of the male Wistar rats of 12 weeks age are injected with 0.5 IU/kg long-term insulin (MonotardR HM) three times a day for fourteen days. Then, the 10 mg/kg tolbutamide, an anti-diabetic drug of sulfonylurea class, is injected into the abdominal cavity. Phlebotomize 0.1 ml blood respectively at the preadministration and the postadministration of sixty minutes, and calculate the reduced value of the blood sugar. If the variation of the ability of lowering blood sugar is less than 10%, which is deemed as the type II (insulin resistance) diabetes rat.
as §1, §2, §3

[1] = literature; cited from earlier work

SMILES	% decrease in plasma glucose (Normal rats) [%]	Post-treatment Plasma glucose (Normal rats) [mg/dL]	Pre-treatment Plasma glucose (Normal rats) [mg/dL]	effect on coronary flow rate (in words) (coronary artery)	coronary flow (coronary artery; conc. 0 (baseline)) [mL/min]	coronary flow (coronary artery; conc. 1 (unit printed .[…]M)) [mL/min]	coronary flow (coronary artery; conc. 3 (unit printed .[…]M)) [mL/min]	coronary flow (coronary artery; conc. 0.1 (unit printed .[…]M)) [mL/min]	coronary flow (coronary artery; conc. 0.3 (unit printed .[…]M)) [mL/min]	coronary flow (coronary artery; conc. 10 (unit printed .[…]M)) [mL/min]	also measured
CCCCNC(=O)C=Cc1ccc2c(c1)OCO2	–	–	–	–	–	–	–	–	–	–	melting point: 82 to 83 °C
O=C(/C=C/c1ccc2c(c1)OCO2)NCCc1ccccc1 [615 (37)]	23.9 ± 2.1	105.2 ± 3.5	138.3 ± 4.1	–	–	–	–	–	–	–	–
COc1ccc(CCNC(=O)C=Cc2ccc(O)c(O)c2)cc1OC [638 A]	18.1 ± 2.9	83.6 ± 1.9	102.5 ± 2.4	–	–	–	–	–	–	–	–
O=C(C=Cc1ccc(O)c(O)c1)NCCc1ccc(Br)cc1 [638 B]	21.4 ± 3.0	76.8 ± 4.1	98.1 ± 5.2	–	–	–	–	–	–	–	–
CC(=O)Oc1ccc(C=CC(=O)NCCc2ccccc2)cc1OC(C)=O [639 B]	28.1 ± 3.3	84.0 ± 5.0	116.7 ± 2.8	capable of increasing the coronary flow rate	7.4 ± 0.2	9.0 ± 0.4	11.6 ± 0.6	–	–	–	–
O=C(C=Cc1ccc(O)c(O)c1)Nc1ccc(O)cc1 [Compound 638H]	–	–	–	–	9.0 ± 0.3	9.1 ± 0.5	10.1 ± 0.7	9.0 ± 0.5	8.9 ± 0.5	13.1 ± 1.0	–
O=C(C=Cc1ccc(O)c(O)c1)NCc1cccc(F)c1 [Compound 638I]	–	–	–	capable of increasing the coronary flow rate	7.4 ± 0.7	7.6 ± 0.8	8.2 ± 0.8	7.1 ± 0.5	7.1 ± 0.5	9.3 ± 0.7	–
COc1cc(/C=C/C(=O)NCCc2ccccc2)ccc1O [Compound 640]	–	–	–	capable of increasing the coronary flow rate	9.7 ± 1.3	10.3 ± 1.5	11.0 ± 1.5	10.1 ± 1.5	10.2 ± 1.4	14.6 ± 2.2	–
CN(Cc1ccccc1)C(=O)C=Cc1ccc(O)c(O)c1 [Compound 642A]	–	–	–	capable of increasing the coronary flow rate	10.0 ± 0.7	16.8 ± 1.6	19.8 ± 2.1	12.9 ± 0.4	14.2 ± 0.8	–	–
CN(CCc1ccccc1)C(=O)C=Cc1ccc(O)c(O)c1 [Compound 642B]	–	–	–	capable of increasing the coronary flow rate	9.8 ± 2.1	12.8 ± 1.9	17.4 ± 1.9	9.8 ± 2.1	10.4 ± 1.7	23.2 ± 1.7	–
CN(CCOc1ccc(CC2SC(=O)NC2=O)cc1)c1ccccn1 (centres unmarked) [Rosiglitazone, reference compound]	–	–	–	–	–	–	–	–	–	–	% decrease in plasma glucose (Type 2 diabetic rats): 15.6 ± 6.3%
O=C(O)/C=C/c1ccc(O)c(O)c1 [caffeic acid]	–	–	–	–	–	–	–	–	–	–	lowering blood sugar (earlier studies) [1]: effective in lowering blood sugar
COc1cc(CNC(=O)CCCC/C=C/C(C)C)ccc1O [capsaicin]	–	–	–	–	–	–	–	–	–	–	lowering blood sugar (earlier studies) [1]: effective in lowering blood sugar
